# From the NIST ThermoML archive (doi:10.1021/je700297c)
# ± gives the expanded uncertainty stated by the source.
# Experiment: activity coefficient (dimensionless); of the first substance listed, at infinite dilution; xn = mol fraction of the nth substance listed
# Conditions: Liquid, Chromatography, x1 = 0
Structure (SMILES),activity coefficient (323 K),activity coefficient (298 K),activity coefficient (303 K)
Cc1ccccc1 [toluene] + CCCC[n+]1ccn(C)c1.O=S(=O)([N-]S(=O)(=O)C(F)(F)F)C(F)(F)F,1.2 ± 0.1,,
Cc1ccccc1 [toluene] + CCCCn1cc[n+](C)c1.F[B-](F)(F)F,2.4 ± 0.2,2.5 ± 0.2,
Cc1ccccc1 [toluene] + C[n+]1ccn(CCCC#N)c1.N#CN=C=[N-],4 ± 0.3,,4.3 ± 0.3
Cc1ccccc1 [toluene] + C[n+]1ccn(CCCC#N)c1.O=S(=O)([N-]S(=O)(=O)C(F)(F)F)C(F)(F)F,3.1 ± 0.2,,3.3 ± 0.2
O [water] + CCCC[n+]1ccn(C)c1.O=S(=O)([N-]S(=O)(=O)C(F)(F)F)C(F)(F)F,2.6 ± 0.2,,
O [water] + C[n+]1ccn(CCCC#N)c1.O=S(=O)([N-]S(=O)(=O)C(F)(F)F)C(F)(F)F,1.8 ± 0.1,,
